{"source": "patent US9133242B2", "about": "“Peptide for use as a medicament, in particular for the treatment of cancer” (priority 2010, dated 2015)", "type_in_all_cases": "cell-based", "key": {"[1]": {"system": "TX 1 cells (line derived from breast tumors which no longer respond to Taxol)", "assay": "Growth inhibition of Taxol-resistant TX 1 cells", "conditions": "after 24 H of culture", "experimental": "(§1) The studies were carried out on two cell lines, TX 1 and TX 2, derived from breast tumors which no longer respond to Taxol. […] 1 and the peptide of SEQ. 7. […]"}, "[2]": {"system": "A 549 (Human lung tumor)", "assay": "MTT cell viability, A549 lung cancer line", "conditions": "variants tested on the A549 line; for evaluation of the activity (in words): compared with peptide SEQ. 1", "experimental": "Approximately 10 000 cells were seeded, in a volume of 0.2 mL per well, into 96-well microplates for 24 hours before treatment with the peptide of SEQ. 1. The cells were incubated for 48 to 72 hours at 37° C. in a CO2 incubator in the presence or absence of the peptide of SEQ. 1 at various concentrations.\nFollowing this incubation, MTT reagent or 3-(4,5-dimethyl[…])-2,5-diphenyltetrazolium bromide (0.5 mg/ml in a volume of 0.1 ml) was added to each well and incubated for 2 hours at 37° C.\nThe tetrazolium ring contained by the MTT is then reduced by the succinate dehydrogenase of the live cells, to give formazan. Next, the supernatant was removed and 0.1 ml of lysis buffer (isopropanol containing 10% of triton×100 and 10% of 1N HCl) was added in order to dissolve the bluish violet formazan precipitate formed. After a few minutes, the absorbance was determined at ambient temperature using a microplate reader at a test wavelength of 562 nm. Wells not comprising peptide of SEQ. 1 were used so as to verify the viability of control cells. IC 50 (concentration of peptide of SEQ. 1 causing 50% cytotoxicity on these cell lines) values for each cell variety were evaluated by means of the ratio of the absorbance of the treated cells to the absorbance of the control cells. […]"}, "[3]": {"system": "TX 2 cells (line derived from breast tumors which no longer respond to Taxol)", "assay": "Growth inhibition of Taxol-resistant TX 2 cells", "conditions": "after 24 H of culture", "experimental": "as §1"}, "[4]": {"system": "FIBRO 1 and FIBRO 2 nontumorigenic fibroblast cells", "assay": "Immunofluorescent labeling of microtubule network, healthy fibroblasts", "conditions": "human fibroblasts FIBRO 1 and FIBRO 2, 15 μM", "experimental": "FIG. 4 represents photos of non-tumor cell lines, FIBRO 1 and FIBRO 2 (fibroblast cells), treated with the peptide of SEQ. 1 at 15 μM and not treated with this peptide (control);\nThe specific activity of the peptide of SEQ. Two varieties of nontumorigenic fibroblast cells: FIBRO 1 and FIBRO 2, were brought into contact with the peptide of SEQ. 1 in order to see whether the microtubule network of healthy cells was also disrupted by the peptide. […] 1 (no modification of polymerized tubulin density), at the very least at concentrations of peptide of SEQ. 1 used for the cancer cells (15 μM). This observation represents an important advance of the present invention."}}, "note": "“Also recorded” adds a separate entry of the source. Where no end group is shown, it is not given here."}
{"substance": "INWKKIAKKVAGML-NH2 [SEQ. 7, INWKKIAKKVAGML-NH2]", "values": [{"measurement": "growth inhibition", "setting": "[1]", "value": "significant"}, {"measurement": "evaluation of the activity (in words)", "setting": "[2]", "value": "absolutely equivalent to the peptide SEQ. 1; also recorded: Very good activity"}, {"measurement": "growth inhibition", "setting": "[3]", "value": "significant"}]}
{"substance": "INWLAIAAKVAGML [SEQ. 4, INWLAIAAKVAGML-NH2]", "values": [{"measurement": "evaluation of the activity (in words)", "setting": "[2]", "value": "absolutely equivalent to the peptide SEQ. 1; also recorded: Very good activity"}]}
{"substance": "INWLAIAKKVAGML [SEQ. 3, INWLAIAKKVAGML-NH2]", "values": [{"measurement": "evaluation of the activity (in words)", "setting": "[2]", "value": "absolutely equivalent to the peptide SEQ. 1; also recorded: Very good activity"}]}
{"substance": "INWLKIAKKVAG-NH2 [SEQ. 19, INWLKIAKKVAG-NH2]", "values": [{"measurement": "evaluation of the activity (in words)", "setting": "[2]", "value": "Medium activity"}]}
{"substance": "INWLKIAKKVAGM-NH2 [SEQ. 18, INWLKIAKKVAGM-NH2]", "values": [{"measurement": "evaluation of the activity (in words)", "setting": "[2]", "value": "Medium activity"}]}
{"substance": "INWLKIAKKVAGML [SEQ. 2]", "values": [{"measurement": "IC50", "setting": "[2]", "value": "~15", "unit": "µM"}, {"measurement": "evaluation of the activity (in words)", "setting": "[2]", "value": "Medium activity"}]}
{"substance": "INWLKIAKKVAGML-NH2 [SEQ. 1, INWLKIAKKVAGML-NH2]", "values": [{"measurement": "modification of polymerized tubulin density in healthy cells", "setting": "[4]", "value": "do not respond at all"}]}
{"substance": "INWLKIAKKVKGML [SEQ. 9, INWLKIAKKVKGML-NH2]", "values": [{"measurement": "evaluation of the activity (in words)", "setting": "[2]", "value": "absolutely equivalent to the peptide SEQ. 1; also recorded: Very good activity"}]}
